# Results as given in article PMC5326599 (Antiviral research, 2017).
# Values joined by “and” are separate entries in the source; they are usually repeats but may differ in a detail not shown here. Equal entries are not always repeated. Where two headings read alike, the source gives them in different places. Marks after values point to notes of the source that are not given here.
# Experiments:
# [1] = system: A/WSN/33 (M2-N31S + V27A) (H1N1) virus; assay type: cell-based, influenza A virus
# [2] = system: influenza A/WSN/33 (M2-N31S + V27A) (H1N1) virus; parameters: species or system BALB/c mice; conditions: mouse, in vivo
# [3] = system: A/WSN/33 (M2-N31S) (H1N1) virus; assay type: cell-based, influenza A virus; conditions: read-out: EC50, A/WSN/33 (M2-N31S) (H1N1)
# [4] = system: A/Solomon Islands/3/2006 (H1N1) virus; test: microbe, parasite or virus in culture; assay type: cell-based; conditions: read-out: EC50, A/Solomon Islands/3/2006 (H1N1)
# [5] = system: A/Udorn/72 (H3N2) virus (M2-WT); test: microbe, parasite or virus in culture; assay type: cell-based, influenza A virus
# M2-S31N channel = M2-S31N channel (Influenza A virus, UniProt P0DOF5, S31N); assay type: biochemical
# [6] = target: A/Udorn/72 (M2-V27A) proton channel (Influenza A virus, UniProt P0DOF5, V27A); assay type: biochemical
Structure (SMILES),inhibition of plaque formation [1],Mean Lung Parameters ± SD (Day 6): Hemorrhage Score [2],Mean Lung Parameters ± SD (Day 6): Virus Titer [2],Mean Lung Parameters ± SD (Day 6): Weight [2],Survivors/Total [2],protection from death [2],EC50 [3],"EC50 ([4]; Influenza A virus, H1N1, MDCK)",MDD ± SD (mean day of death) [2],protection / effectiveness (in words) [2],"EC50 ([5]; Influenza A virus, H3N2, read-out: antiviral EC50 at passage 1)","channel inhibition at 100 μM, M2-S31N (M2-S31N channel)","EC50 ([1]; read-out: Antiviral Efficacy EC50, A/WSN/33 (M2-N31S + V27A) (H1N1) M2-V27A)",EC50 [4],"channel conductance current at the second activation event, % of the maximum current [6]",EC50 ([5]; read-out: antiviral EC50 at passage 1),EC50 ([5]; read-out: antiviral EC50 at passage 2)
"CCC(CC)O[C@@H]1C=C(C(=O)O)C[C@H](N)[C@H]1NC(C)=O [Oseltamivir carboxylate (4), Oseltamivir carboxylate, reference compound]",complete inhibition,–,–,–,–,–,–,–,–,–,–,–,–,–,–,–,–
"CCOC(=O)C1=C[C@@H](OC(CC)CC)[C@H](NC(C)=O)[C@@H](N)C1 [Oseltamivir (4), Oseltamivir]",–,0.0 ± 0.0,2.5 ± 0.2 Log10 CCID50/g,178 ± 28 mg,10/10^***,100%,–,–,–,–,–,–,–,–,–,–,–
"NC12CC3CC(CC(C3)C1)C2 [Amantadine (1), amantadine]",–,–,[…],[…],[…],–,[…],[…],[…],minimum effectiveness,[…],–,–,–,–,–,–
"NC1CCC2(CC1)C1CC3CC(C1)CC2C3 (centres unmarked) [Compound 3, spiroadamantane amine]",–,–,[…],[…],"[…]",–,[…],–,[…],highly protective,–,[…],[…],[…],[…],[…],[…]
